Laboratory results as given in PubChem BioAssay (NCI).
“And” between values parts separate entries of the source, which are not always exact repeats. Equal entries are not always repeated.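 The compound was tested at five concentrations on cells cultured in 96-well plates, with a 48-hour exposure period. GI50 = concentration required for 50% inhibition of growth. TGI marks complete inhibition of growth.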

Experiments:
Experiment in all cases: DTP human tumour cell line panel, 48 h
SR leukemia = test system: SR leukemia
EKVX NSCLC = test system: EKVX NSCLC
SNB-75 CNS = test system: SNB-75 CNS
NCI-H226 lung = test system: NCI-H226 lung
A498 renal = test system: A498 renal
HCC-2998 colon = test system: HCC-2998 colon
OVCAR-4 ovarian = test system: OVCAR-4 ovarian
BT-549 breast = test system: BT-549 breast
MDA-MB-231 breast = test system: MDA-MB-231 breast
NCI/ADR-RES ovarian = test system: NCI/ADR-RES ovarian

Row | Compound | TGI (SR leukemia) [µM] | TGI (EKVX NSCLC) [µM] | TGI (SNB-75 CNS) [µM] | TGI (NCI-H226 lung) [µM] | TGI (A498 renal) [µM] | TGI (HCC-2998 colon) | TGI (OVCAR-4 ovarian) [µM] | TGI (BT-549 breast) [µM] | TGI (MDA-MB-231 breast) | GI50 (SR leukemia) [µM] | GI50 (EKVX NSCLC) [µM] | GI50 (SNB-75 CNS) [µM] | GI50 (NCI-H226 lung) [µM] | GI50 (NCI/ADR-RES ovarian) [µM] | TGI (NCI/ADR-RES ovarian) [µM] | GI50 (A498 renal) [µM] | GI50 (HCC-2998 colon) [µM] | GI50 (OVCAR-4 ovarian) | GI50 (BT-549 breast) [nM] | GI50 (MDA-MB-231 breast) [µM]
1 | O=C1NC(=O)C2(CCC(O)C2)c2cc[n+]([O-])cc21 (configuration not stated) | > 100 | > 100 | > 100 | > 100 | > 100 | > 100 µM | > 100 | > 100 | > 100 µM |  |  |  |  |  |  |  |  |  |  | 
2 | COC(=O)c1c2c(c(C)[n+]([O-])c1C)C(=O)C(NCc1cccc(OC)c1)=CC2=O | > 100 | 5.44 | 12.9 | 13 | 5.3 | 9.64 µM | 2.55 | 13.4 | 6.24 µM | 2.36 | 2.11 | 3.03 | 3.32 | 2.36 | 6.74 | 1.79 | 3.12 | 1.27 µM | 3490 | 2.21
3 | Cc1ccc(C2SCc3nc4ccc(C(=O)c5ccccc5)cc4n32)cc1 (configuration not stated) |  | > 100 | > 70 | 62.3 | 36.3 |  | > 100 | 18.4 | 19.4 µM |  | 21.8 | 23.3 | 15.3 | 2.37 | 8.38 | 13.5 |  | 34 µM | 4800 | 3.66
4 | O=C(c1ccco1)c1c(C(F)(F)F)nc2cc(C(F)(F)F)ccc2[n+]1[O-] | > 100 | > 100 | 42.7 | > 100 | 63.8 | > 100 µM | > 100 | > 100 | 40.9 µM | 33.7 | 50.6 | 16.6 | > 100 | 67.2 | > 100 | 20.5 | > 100 | > 100 µM | 57800 | 18.9
5 | COc1ccc(NC(=O)Nc2ccc(Nc3nc(C)cc(Nc4ccc(C)cc4)n3)cc2)cc1 |  | 4.42 | 3 |  | 18.8 | 3.59 µM | 2.55 | 4.24 | 2.46 µM |  | 2.03 | 1.53 |  | 1.33 | 3.75 | 7.29 | 1.89 | 1.16 µM | 1880 | 0.894
6 | C=CC[Se]C(=O)Cc1c(C)n(C(=O)c2ccc(Cl)cc2)c2ccc(OC)cc12 | 8.19 | 3.55 | 2.81 |  | 4.25 | 3.2 µM | 3.07 | 3.01 | 3.21 µM | 2.29 | 1.73 | 1.48 |  | 1.94 | 3.89 | 1.52 | 1.64 | 1.69 µM | 1590 | 1.66
7 | CC[C@@H](C)[C@H]([C@H](CC(=O)N1CCC[C@@H]1[C@@H](OC)[C@H](C)C(=O)N[C@H](Cc1ccccc1)c1nccs1)OC)N(C)C(=O)[C@H](NC(=O)[C@@H](C(C)C)N(C)C)C(C)C |  |  |  |  |  | 0.00176 µM and 0.00234 µM |  | > 100 | 0.000867 µM and < 0.048 µM |  |  | 0.000425 |  | 0.000317 | < 0.215 |  | 0.000425 | 1.2 µM and 0.588 µM | 0.0848 | 0.000147
8 | COc1cc(-c2nn(C(=O)NS(=O)(=O)c3ccc(C)cc3)cc2-c2ccncc2)ccc1Cl | 40.9 | 27.6 | 7.52 | 14.8 | 39.6 | 35.8 µM | 27.3 | 10.6 | 28.2 µM | 5.1 | 2.78 | 1.69 | 2.88 | 3.93 | 80.6 | 6.98 | 11.4 | 3.26 µM | 2660 | 3.19
9 | COc1ccc2[nH]c(-c3cccc(N(C)C)c3)cc(=O)c2c1 | 1.73 | 30.7 | 50.2 |  |  | 3.29 µM and 2.29 µM | > 100 |  | > 100 µM |  | 1.17 | 0.371 | 0.581 | 0.487 |  |  | 0.472 |  |  | 2.1
10 | Cc1ccccc1-n1c(/C=C\c2ccccn2)nc2ccccc2c1=O | 20.4 | > 100 | > 100 | > 100 | 70.6 | 29.9 µM | > 100 | 22.3 | 59.2 µM | 3.05 | 23.7 | 16.9 | 28.8 | 7.16 | 79.5 | 9.47 | 15.9 | 18.1 µM | 7440 | 4.69
11 | CC1CCCN(CC(O)CN2CCCc3ccccc32)C1 (configuration not stated) | > 100 | > 100 | > 100 | > 100 | > 100 |  | > 100 | > 100 | > 100 µM |  |  |  |  |  | > 100 |  |  |  |  | 
12 | Cc1c2ncccc2nc2[nH]c3ccc(OCCN(C)C)cc3c12 | 7.95 | 21.2 |  | 21.5 | 20 | 14.6 µM | 8.75 | 29.7 | 16 µM | 0.734 | 2.9 |  | 5.05 | 1.1 | 17.4 | 5.18 | 1.64 | 1.84 µM | 7460 | 2.5
13 | CC12CCc3ccccc3C1=Nc1ccccc12 (configuration not stated) | > 100 | > 100 | > 100 | 89.8 |  |  | > 100 | 95.6 | > 100 µM |  |  |  |  |  | 64.6 |  |  |  |  | 
14 | CCOC(=O)N1C/C(=C/c2ccc(OC)cc2)C(=O)/C(=C/c2ccc(OC)cc2)C1 | > 32.7 |  | 31.1 | 18.9 | > 29 | 3.38 µM | > 31 | 4.47 | 6.48 µM | 0.579 |  | 2.93 | 3.29 | 3.35 | > 100 | 3.13 | 1.81 | 2.77 µM | 2010 | 2.38
15 | O=C1/C(=C/c2ccc([N+](=O)[O-])s2)Oc2ccccc21 | 0.759 |  | 5.98 | 5.75 | 18 | 2.89 µM | 2.8 | 1.98 | 0.818 µM | 0.216 |  | 1.03 | 2.24 | 1.74 | 9.25 | 3.22 | 1.42 | 0.538 µM | 745 | 0.279
